{"source": "patent US6884421B2", "about": "“Pharmaceutical composition for diabetic nephropathy” (Council of Scientific and Industrial Research, priority 2002, dated 2005)", "key": {"diabetic rats [1]": {"tested_on": "diabetic rats", "experiment": "Urinary protein excretion by TCA precipitation method in streptozotocin diabetic rats", "assay_type": "in vivo, Male Wistar rats", "settings": "end of fifth week", "method": "Urinary protein is determined at the end of fifth week by TCA precipitation method and the absorbance is measured at 660 nm.\nDiabetes is induced in Male Wistar rats weighing between 120 g using streptozotocin at 55 mg/kg body weight and the rats are fed with wheat bran (1 to 5%), guar gum (1 to 2.5%) and butyric acid in the range of 1, 2, 4, 6, 8 and 10 mg/kg body weight/day in drinking water. After 4 days measuring fasting blood glucose level in the plasma and urinary sugar levels assessed the diabetic status.\nDiabetes is induced in Male Wistar rats weighing between 120 g using streptozotocin at 55 mg/kg body weight and the rats are fed with wheat bran (1 to 5%), guar gum (1 to 2.5%) and butyric acid in the range of 250, 500 and 750 mg/kg body weight/day in drinking water. After 4 days measuring fasting blood glucose level in the plasma and urinary sugar levels assessed the diabetic status.\nUrinary protein is determined at the end of fifth week by TCA precipitation method and the absorbance is measured at 660 nm (Table 2)."}, "diabetic rats [2]": {"tested_on": "diabetic rats", "experiment": "Glomerular Filtration Rate from urinary and plasma creatinine in streptozotocin diabetic rats", "assay_type": "in vivo, Male Wistar rats", "settings": "end of fifth week, mean ±SEM", "text": "Urinary creatinine is estimated by alkaline picrate reagent method. […] The plasma is deproteinsed using tungstic acid prior to creatinine estimation.\nThe formula used is [formula]"}, "[3]": {"settings": "FFD-250: fibre fed (wheat bran, guar gum) diabetic rats, 250 mg butyric acid/kg body weight/day in drinking water"}, "[4]": {"settings": "FFD-500: fibre fed (wheat bran, guar gum) diabetic rats, 500 mg butyric acid/kg body weight/day in drinking water"}, "[5]": {"settings": "FFD-750: fibre fed (wheat bran, guar gum) diabetic rats, 750 mg butyric acid/kg body weight/day in drinking water"}, "[6]": {"settings": "SFD-250: starch fed diabetic rats, 250 mg butyric acid/kg body weight/day in drinking water"}, "[7]": {"settings": "SFD-500: starch fed diabetic rats, 500 mg butyric acid/kg body weight/day in drinking water"}, "[8]": {"settings": "SFD-750: starch fed diabetic rats, 750 mg butyric acid/kg body weight/day in drinking water"}}, "note": "Marks after values point to notes of the source that are not given here."}
{"smiles": "CCCC(=O)O", "note": "[butyric acid]", "values": [{"measurement": "Urinary protein", "setting": "diabetic rats [1]; [3]", "result": "104.07 ± 11.31^b mg/24 h"}, {"measurement": "Urinary protein", "setting": "diabetic rats [1]; [4]", "result": "88.82 ± 9.82^b mg/24 h"}, {"measurement": "Urinary protein", "setting": "diabetic rats [1]; [5]", "result": "90.37 ± 9.14^b mg/24 h"}, {"measurement": "Urinary protein", "setting": "diabetic rats [1]; [6]", "result": "126.77 ± 9.82", "unit": "mg/24 h"}, {"measurement": "Urinary protein", "setting": "diabetic rats [1]; [7]", "result": "124.86 ± 6.81^b mg/24 h"}, {"measurement": "Urinary protein", "setting": "diabetic rats [1]; [8]", "result": "115.37 ± 10.91", "unit": "mg/24 h"}, {"measurement": "GFR", "setting": "diabetic rats [2]; [3]", "result": "10.56 ± 1.05^b mL/min"}, {"measurement": "GFR", "setting": "diabetic rats [2]; [4]", "result": "9.23 ± 1.09^b mL/min"}, {"measurement": "GFR", "setting": "diabetic rats [2]; [5]", "result": "11.64 ± 1.27^b mL/min"}, {"measurement": "GFR", "setting": "diabetic rats [2]; [6]", "result": "15.99 ± 1.30", "unit": "mL/min"}, {"measurement": "GFR", "setting": "diabetic rats [2]; [7]", "result": "15.60 ± 1.21", "unit": "mL/min"}, {"measurement": "GFR", "setting": "diabetic rats [2]; [8]", "result": "15.23 ± 1.04", "unit": "mL/min"}]}
